Test [1] concerns the target T1, DYRK1A (Homo sapiens, UniProt Q13627).
T1 construct: expressed in transfected cells; host or cells: 293T
The test can be described thus: NFAT signaling reporter (NFAT-RE-luciferase), cell-based DYRK1A efficacy evaluation in 293T cells. Particulars: for luciferase increase effect / activity level compared with harmine and CX-4945: 10 μM; for luciferase increase effect: 293T cells, NFAT-RE-luciferase reporter, IM + PMA, DYRK1A overexpressed, among 570 candidates; for activity level compared with harmine and CX-4945: same reporter conditions; for EC50 of luciferase increase effect, fold lower than harmine and CX-4945: NFAT reporter, concentration gradient (FIG. 4); for luciferase activity compared with condition without DYRK1A overexpression: treated with 3 μM, concentration gradient, same conditions. As for the experimental part: With respect to the 570 compounds identified as candidate DYRK1A inhibitors through the virtual screening, a secondary effect evaluation was carried out using NFAT signaling reporter which is the already well-established cell-based DYRK1A effect evaluation system (FIG. 3). NFAT signaling reporter has a very high level of dependence on DYRK1A, and thus is effective in the identifying experiment of the proper candidate DYRK1A inhibitors. DYRK1A is known to regulate calcineurin/Nuclear Factor of Activated T cells (NFAT) signals and play an important role in the stage of human development process. NFATc1 transcription factor is usually present as a protein that is phosphorylated in the cytoplasm when the Ca^2+ concentration of the cells is increased, NFATc1 is dephosphorylated by calcineurin phosphatase which is a Ca^2+-dependent protein, and NFATc1 is moved into the nucleus. NFATc1 which has entered into the nucleus and protein partner NFATn form a transcription complex, and the complex binds to the promoter of the target gene to induce the target gene expression. In contrast, DYRK1A phosphorylates NFATc1 to inhibit the movement of NFATc1 into the nucleus, and results in the inhibition of the expression of the target gene. The DYRK1A-inhibitory effect of the 570 candidates was confirmed through the transcription activity of NFATc1, and for this, a luciferase reporter containing NFAT response element (NFAT-RE) useful to measure the transcription activity of NFATc1 was used. A NFAT-RE-luciferase reporter was over-expressed in 293T cells, and was then treated with Ionomycin (IM) and phorbol 12-myristate 13-acetate (PMA) to increase the intracellular concentration of Ca^2+. As a result, the expression of luciferase was increased sharply. […] If the candidate drug treatment in this condition inhibits DYRK1A, the luciferase will be increased.
(In general: Reporter assays use an easily measured gene product as a stand-in for the process of interest.)

The target of test [2] is T1, DYRK1A. The test can be described thus: Inhibition of Tau protein (Thr212) phosphorylation in 293T cells overexpressing Tau and DYRK1A. The test is classed as cell-based. Particulars: for IC50: 293T cells overexpressing Tau and DYRK1A.
The next test deals with GSK3β (Homo sapiens, UniProt P49841). Description: In vitro CMGC kinase assay, GSK3β. The test is classed as biochemical. The following applies: in vitro kinase panel; next to DYRK1A.
Test [3] deals with T1, DYRK1A. Description: In vitro kinase assay with separated and purified DYRK1A protein. The test is classed as biochemical.
A further test concerns the target C-met kinase (Homo sapiens, UniProt P08581). The following applies: existing studies; ATP competitive manner; cited from earlier work.

C-met kinase, sequence (P08581 25-1390): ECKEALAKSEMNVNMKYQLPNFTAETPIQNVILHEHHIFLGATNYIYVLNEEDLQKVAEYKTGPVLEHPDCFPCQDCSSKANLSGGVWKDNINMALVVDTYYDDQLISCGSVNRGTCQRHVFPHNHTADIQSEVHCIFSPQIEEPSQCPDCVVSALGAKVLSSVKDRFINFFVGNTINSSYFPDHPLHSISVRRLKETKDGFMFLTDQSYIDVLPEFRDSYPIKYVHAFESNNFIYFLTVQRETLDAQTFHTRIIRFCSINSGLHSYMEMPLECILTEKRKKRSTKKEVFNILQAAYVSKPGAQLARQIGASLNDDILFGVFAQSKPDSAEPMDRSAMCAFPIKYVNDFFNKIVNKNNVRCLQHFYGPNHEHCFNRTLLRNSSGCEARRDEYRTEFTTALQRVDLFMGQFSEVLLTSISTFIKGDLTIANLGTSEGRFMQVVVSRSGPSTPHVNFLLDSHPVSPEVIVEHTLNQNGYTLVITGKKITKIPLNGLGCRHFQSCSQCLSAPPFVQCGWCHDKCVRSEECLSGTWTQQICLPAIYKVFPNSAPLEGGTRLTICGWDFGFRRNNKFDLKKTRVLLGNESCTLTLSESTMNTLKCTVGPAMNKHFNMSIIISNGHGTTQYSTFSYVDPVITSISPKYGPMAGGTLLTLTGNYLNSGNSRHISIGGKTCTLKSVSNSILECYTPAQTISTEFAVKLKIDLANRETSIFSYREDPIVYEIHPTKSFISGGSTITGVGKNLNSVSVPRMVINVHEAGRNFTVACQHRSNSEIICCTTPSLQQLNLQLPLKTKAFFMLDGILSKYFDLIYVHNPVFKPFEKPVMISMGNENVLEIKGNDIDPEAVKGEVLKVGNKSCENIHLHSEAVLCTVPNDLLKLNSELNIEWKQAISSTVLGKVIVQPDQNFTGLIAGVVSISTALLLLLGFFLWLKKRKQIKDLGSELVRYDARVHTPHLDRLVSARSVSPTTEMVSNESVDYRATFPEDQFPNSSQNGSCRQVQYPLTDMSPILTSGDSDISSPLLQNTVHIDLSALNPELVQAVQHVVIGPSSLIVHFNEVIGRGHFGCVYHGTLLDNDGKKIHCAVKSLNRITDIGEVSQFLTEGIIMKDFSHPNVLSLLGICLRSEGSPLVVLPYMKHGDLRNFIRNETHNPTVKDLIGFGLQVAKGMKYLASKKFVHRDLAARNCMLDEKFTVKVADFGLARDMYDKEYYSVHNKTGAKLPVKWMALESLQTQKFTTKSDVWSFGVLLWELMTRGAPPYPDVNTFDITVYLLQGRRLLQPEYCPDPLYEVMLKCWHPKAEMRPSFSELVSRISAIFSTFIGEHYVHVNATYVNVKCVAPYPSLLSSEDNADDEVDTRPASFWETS
GSK3β, sequence (P49841 whole entry, species assumed): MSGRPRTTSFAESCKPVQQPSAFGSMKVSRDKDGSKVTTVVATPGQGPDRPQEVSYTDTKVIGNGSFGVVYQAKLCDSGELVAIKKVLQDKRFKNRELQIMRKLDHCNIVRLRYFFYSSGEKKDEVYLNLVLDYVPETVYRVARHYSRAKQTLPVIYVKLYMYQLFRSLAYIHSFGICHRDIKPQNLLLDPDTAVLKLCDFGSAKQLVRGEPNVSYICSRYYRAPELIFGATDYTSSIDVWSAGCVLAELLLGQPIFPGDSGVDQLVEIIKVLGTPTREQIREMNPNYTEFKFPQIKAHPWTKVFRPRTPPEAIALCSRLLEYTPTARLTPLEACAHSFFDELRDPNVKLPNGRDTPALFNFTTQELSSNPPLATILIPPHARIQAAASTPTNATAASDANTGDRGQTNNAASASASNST

Turning to `CC(=O)N1CCC(n2cc(-c3cnc(N)c(-c4nc5cnccc5o4)c3)cn2)CC1` [formula 2], on DYRK1A [1], the luciferase increase effect entry is on record as “highest luciferase increase effect”; the “activity level compared with harmine and CX-4945” value is “clearly higher”; the “EC50 of luciferase increase effect, fold lower than harmine and CX-4945” value came to 10 times; the “luciferase activity compared with condition without DYRK1A overexpression” value is reported as “higher than the luciferase activity of the condition that DYRK1A was not overexpressed”. This molecule gave an IC50 on DYRK1A [2] of about 0.05 µM. The “inhibitory effect on Tau phosphorylation, times stronger than harmine, INDY and proINDY” value at DYRK1A [2] (same experimental conditions) is recorded as 10-60 times. Besides, on GSK3β, the “inhibitory effect on GSK3β” value was “high inhibitory effect”. Besides, on DYRK1A [3] (100 nM concentration, read-out: inhibitory effect on DYRK1A), the inhibition at 0.1 µM was about 95%. Further, the “rank of inhibitory effect among DYRK family and CMGC kinases” value at DYRK1A [3] (in vitro kinase panel (FIG. 6)) was “strongest inhibitory effect on DYRK1A”. Besides, the IC50 on DYRK1A [3] (predicted from inhibition at 100 nM) is about 0.01 µM. In addition, at C-met kinase, the C-met kinase inhibition entry is recorded as “inhibitors of the C-met kinase”.
Take `Nc1ncc(-c2cnn(C3CCNCC3)c2)cc1-c1nc2cnccc2o1` [formula 3]: on DYRK1A [1], the luciferase increase effect result was “highest luciferase increase effect”; the “activity level compared with harmine and CX-4945” value is recorded as “clearly higher”; the “EC50 of luciferase increase effect, fold lower than harmine and CX-4945” value amounted to 10 times; the “luciferase activity compared with condition without DYRK1A overexpression” value is reported as “higher than the luciferase activity of the condition that DYRK1A was not overexpressed”. The C-met kinase inhibition entry at C-met kinase is recorded as “inhibitors of the C-met kinase”.
As for `Cn1cc(-c2cnc(N)c(-c3nc4cnccc4o3)c2)cn1` [formula 4], on DYRK1A [1], the luciferase increase effect result was “highest luciferase increase effect”; the “activity level compared with harmine and CX-4945” value is “clearly higher”.
At DYRK1A [2], `CCN1/C(=C/C(C)=O)Sc2ccc(OC(C)=O)cc21` [proINDY, reference compound] gave an IC50 of about 3 µM.

The IC50 is the concentration needed to halve the response being measured.
